Test results: US10371707B1, “System and methods for bilirubin analysis” (Neolight LLC, priority 2017, dated 2019)
Where a name gives a salt, the structure may show the parent alone.

Legend:
[1] = Cyclic voltammetry, direct electro-oxidation on screen-printed carbon electrodes; assay type: physicochemical; settings: for anodic peak Epa: first/characteristic anodic peak, carbon electrodes, Ag/AgCl reference, scan rate 0.1 V/s, 0.05M Tris-HCl pH 8.5
Description: (§1) All electrochemical experiments were performed on screen-printed carbon electrodes with an Ag/AgCl reference electrode in a 3-electrode mode of operation. Cyclic Voltammetry parameters were controlled via a computational program; scan rate: 0.1 V/s, start potential: −0.5V, switch potential: 0.9V, end potential: −0.5V.
(§2) Deionized water (resistivity 18.2MΩ cm) was used in the preparation of solutions. Bilirubin was dissolved in 0.05M sodium hydroxide to prepare 1 mM stock and gently vortexed till homogenously mixed. This stock solution was then diluted using 0.05 M Tris-HCl (pH 8.5) to the desired working concentration. […] Bromophenol blue was prepared in 0.05M Tris-HCl (pH 8.5). Conjugated bilirubin was dissolved in 0.05M Tris-HCl (pH 8.5) and mixed till homogenous. All tubes containing bilirubin were protected from light.
Regarding the detection of unbound unconjugated bilirubin, it was diluted to a physiologically relevant concentration (100 μM) and analyzed by cyclic voltammetry.

[2] = molecular target: T1, Human serum albumin (Homo sapiens, UniProt P02768); assay: Binding to albumin and displacement of bilirubin by bromophenol blue, assessed by cyclic voltammetry; settings: for binding affinity to albumin (in words): inferred from voltammetric results; for effect of binding to albumin on electrochemical oxidation of the ligand: mixed with albumin, cyclic voltammetry; for peak current of liberated unconjugated bilirubin (peak at 0.15V): unconjugated bilirubin + albumin + bromophenol blue
T1 construct: purchased Sigma Aldrich, UK
Description: as §1, §2
Surfactants, caffeine, sodium benzoate and fatty acids are common solubilizing agents.
As with unconjugated bilirubin, bromophenol blue was used a competitive binding ligand for the displacement of conjugated bilirubin.

[3] = molecular target: T2, albumin (Homo sapiens, UniProt P02768); settings: within human plasma; cited from earlier work
T2 construct: host or cells: human plasma
T2 sequence (P02768 25-609): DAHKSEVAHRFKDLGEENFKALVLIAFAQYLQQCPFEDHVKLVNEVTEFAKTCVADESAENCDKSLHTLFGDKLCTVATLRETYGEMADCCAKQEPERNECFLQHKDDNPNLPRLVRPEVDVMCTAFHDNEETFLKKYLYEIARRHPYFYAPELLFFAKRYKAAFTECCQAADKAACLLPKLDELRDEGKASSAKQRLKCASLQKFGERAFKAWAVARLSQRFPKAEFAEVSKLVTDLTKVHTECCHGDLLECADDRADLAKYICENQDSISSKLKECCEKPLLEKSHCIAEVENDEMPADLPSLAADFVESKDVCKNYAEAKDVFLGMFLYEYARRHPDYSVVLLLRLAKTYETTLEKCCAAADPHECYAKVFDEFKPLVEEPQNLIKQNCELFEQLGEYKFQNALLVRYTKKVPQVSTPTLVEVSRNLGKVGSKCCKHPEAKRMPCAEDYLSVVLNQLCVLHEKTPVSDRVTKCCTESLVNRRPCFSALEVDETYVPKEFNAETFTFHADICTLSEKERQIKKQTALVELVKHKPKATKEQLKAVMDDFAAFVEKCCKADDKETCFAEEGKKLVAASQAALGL

T1 sequence (P02768 25-609): as above

Row | third anodic peak ([1]; cyclic voltammetry, same set-up) [V] | secondary anodic peak ([1]; cyclic voltammetry, same set-up, for unconjugated bilirubin distinct at 50 μM and higher) [V] | SMILES | anodic peak Epa [1] [V] | displacement of conjugated bilirubin from albumin ([2]; conjugated bilirubin, albumin, bromophenol blue at 1:1:1 ratio) | displacement of unconjugated bilirubin from albumin ([2]; equal concentration ratios of unconjugated bilirubin, albumin and bromophenol blue) | binding affinity to albumin (in words) [2] | effect of binding to albumin on electrochemical oxidation of the ligand [2] | peak current of liberated unconjugated bilirubin (peak at 0.15V) ([2]; bromophenol blue concentration increased threefold) [μA] | peak current of liberated unconjugated bilirubin (peak at 0.15V) ([2]; bromophenol blue concentration increased two-fold) [μA] | unconjugated bilirubin bound to albumin [3]
1 |  |  | O=S1(=O)OC(c2cc(Br)c(O)c(Br)c2)(c2cc(Br)c(O)c(Br)c2)c2ccccc21 [bromophenol blue, 4,4′-(1,1-dioxido-3H-2,1-benzoxathiole-3,3-diyl)bis(2,6-dibromophenol)] | 0.64 | sufficiently displaced the conjugated bilirubin | no displacement of unconjugated bilirubin was observed | higher binding affinity | diminish the bromophenol blue peak at 0.64V | 0.347 | 0.645 | 
2 | 0.44 | 0.3 | C=CC1=C(C)/C(=C/c2[nH]c(Cc3[nH]c(/C=C4\NC(=O)C(C)=C4C=C)c(C)c3CCC(=O)NCCS(=O)(=O)O)c(CCC(=O)NCCS(=O)(=O)O)c2C)NC1=O [conjugated bilirubin, Bilirubin conjugated ditaurate disodium salt] | 0.15 |  |  | weaker than that of unbound bilirubin | hinders oxidation of bilirubin |  |  | 
3 |  |  | C=CC1=C(C)/C(=C/c2[nH]c(Cc3[nH]c(/C=C4\NC(=O)C(C)=C4C=C)c(C)c3CCC(=O)O)c(CCC(=O)O)c2C)NC1=O [unconjugated bilirubin, Bilirubin (mixed isomers)] |  |  |  |  |  |  |  | roughly 99.9%
